For experiment [1], the target named is exon 20 T790M mutant-type EGFR enzyme (Homo sapiens, UniProt P00533, T790M). Nature of the experiment: Enzymologic experiment of T790M mutant-type EGFR (TR-FRET). It counts as biochemical. The settings on record: for IC50: T790M EGFR enzyme, TR-FRET, ATP 1 to 10 uM; for Selectivity of wild-type/mutant-type: ratio WT IC50 / T790M IC50, enzyme. The protocol: (§1) 2) 1 to 5 μL of diluted solution in gradient of the compound was added.
(§2) 3) The mixture was incubated for 10 minutes at room temperature.
(§3) 6) 5 μL of EDTA stop solution was added to terminate the reaction for 5 minutes.
7) […] of a test solution containing the labeled antibody was added, and the mixture was incubated at room temperature for 1 hour.
9) The inhibition rates were calculated according to the fluorescence signal values.
(§4) 10) The IC50 of the compound was obtained by curve fitting according to the inhibition rates at different concentrations.

In a further experiment the target is wild-type EGFR enzyme (Homo sapiens, UniProt P00533). Briefly: Enzymologic experiment of wild-type (WT) EGFR (TR-FRET). It counts as biochemical. The note with it: ATP 0.1 to 5 uM. The protocol:
2. Enzymologic Experiment of Wild-Type (WT) EGFR
In this experiment, the inhibitory effect of compounds on wild-type EGFR enzyme was tested by a fluorescence resonance energy transfer (TR-FRET) method, and the half maximal inhibitory concentration IC50 of the compounds on enzymatic activity was determined.
1) 1 to 5 μL of wild-type EGFR enzyme solution was added to a 384-well plate, and the final concentration of the enzyme was 0.1 to 1 nM.
as §1, §2, §3
7) 5 μL of a test solution containing the labeled antibody was added, and the mixture was incubated at room temperature for 1 hour.
9) The inhibition rates were calculated from the fluorescence signal values.
as §4

For another experiment, the system named is NCI-H1975 cells. Nature of the experiment: Inhibition of NCI-H1975 cell proliferation (CellTiter-Glo). It counts as cell-based. The note with it: for IC50: Homo sapiens, NCI-H1975, 72 h, NCI-H1975 cell proliferation, 72 hours, CellTiter-Glo, read-out: EGFR IC50 (nM) H1975; for Selectivity of wild-type/mutant-type: ratio A431 IC50 / H1975 IC50, cells. The protocol:
3. Experiment on the Inhibition of NCI-H1975 Cell Proliferation
In this experiment, the inhibitory effect of the compounds on NCI-H1975 cell proliferation was tested by a CellTiter-Glo method, and the half maximal inhibitory concentration (IC50) of the compounds on the activity of cell proliferation was determined.
The culture plate was incubated in an incubator for 16 to 24 hours (37° C., 5% CO2).
(§5) 2) Different concentrations of the test compound in a gradient dilution were added to the cells in the culture plate. The culture plate was incubated in an incubator for 72 hours (37° C., 5% CO2).
3) 50 to 100 μL of CellTiter-Glo reagent was added to each well. Then, the culture plate was shaken for 10 minutes, and left to stand at room temperature for 10 minutes.
(§6) 4) The chemiluminescence signal values of each plate were determined by a microplate reader.
5) The inhibition rates were calculated according to the chemiluminescence signal values.
6) The IC50 of the compound was obtained by curve fitting according to the inhibition rates at different concentrations.
(In ATP-based viability assays light output follows the ATP content of the culture.)

The test system of another experiment is A431 cells. Nature of the experiment: Inhibition of A431 cell proliferation (CellTiter-Glo). Format: cell-based. The settings on record: Homo sapiens, A-431, 72 h, read-out: EGFR IC50 (nM) A431. The protocol: 4. Experiment on the Inhibition of A431 Cell Proliferation
In this experiment, the inhibitory effect of the compounds on A431 cell proliferation was tested by a CellTiter-Glo method, and the half maximal inhibitory concentration (IC50) of the compounds on the activity of cell proliferation was determined.
The culture plate was incubated in the incubator for 16 to 24 hours (37° C., 5% CO2).
as §5
3) 50 to 100 μL of CellTiter-Glo reagent was added to each well. Then the culture plate was shaken for 10 minutes, and left to stand at room temperature for 10 minutes.
as §6
5) The inhibition rates were calculated according to the chemiluminescence signal values. 6) The IC50 of the compound was obtained by curve fitting according to the inhibition rates at different concentrations.

Each structure is given as a SMILES string.

wild-type EGFR enzyme, sequence (P00533 25-1210): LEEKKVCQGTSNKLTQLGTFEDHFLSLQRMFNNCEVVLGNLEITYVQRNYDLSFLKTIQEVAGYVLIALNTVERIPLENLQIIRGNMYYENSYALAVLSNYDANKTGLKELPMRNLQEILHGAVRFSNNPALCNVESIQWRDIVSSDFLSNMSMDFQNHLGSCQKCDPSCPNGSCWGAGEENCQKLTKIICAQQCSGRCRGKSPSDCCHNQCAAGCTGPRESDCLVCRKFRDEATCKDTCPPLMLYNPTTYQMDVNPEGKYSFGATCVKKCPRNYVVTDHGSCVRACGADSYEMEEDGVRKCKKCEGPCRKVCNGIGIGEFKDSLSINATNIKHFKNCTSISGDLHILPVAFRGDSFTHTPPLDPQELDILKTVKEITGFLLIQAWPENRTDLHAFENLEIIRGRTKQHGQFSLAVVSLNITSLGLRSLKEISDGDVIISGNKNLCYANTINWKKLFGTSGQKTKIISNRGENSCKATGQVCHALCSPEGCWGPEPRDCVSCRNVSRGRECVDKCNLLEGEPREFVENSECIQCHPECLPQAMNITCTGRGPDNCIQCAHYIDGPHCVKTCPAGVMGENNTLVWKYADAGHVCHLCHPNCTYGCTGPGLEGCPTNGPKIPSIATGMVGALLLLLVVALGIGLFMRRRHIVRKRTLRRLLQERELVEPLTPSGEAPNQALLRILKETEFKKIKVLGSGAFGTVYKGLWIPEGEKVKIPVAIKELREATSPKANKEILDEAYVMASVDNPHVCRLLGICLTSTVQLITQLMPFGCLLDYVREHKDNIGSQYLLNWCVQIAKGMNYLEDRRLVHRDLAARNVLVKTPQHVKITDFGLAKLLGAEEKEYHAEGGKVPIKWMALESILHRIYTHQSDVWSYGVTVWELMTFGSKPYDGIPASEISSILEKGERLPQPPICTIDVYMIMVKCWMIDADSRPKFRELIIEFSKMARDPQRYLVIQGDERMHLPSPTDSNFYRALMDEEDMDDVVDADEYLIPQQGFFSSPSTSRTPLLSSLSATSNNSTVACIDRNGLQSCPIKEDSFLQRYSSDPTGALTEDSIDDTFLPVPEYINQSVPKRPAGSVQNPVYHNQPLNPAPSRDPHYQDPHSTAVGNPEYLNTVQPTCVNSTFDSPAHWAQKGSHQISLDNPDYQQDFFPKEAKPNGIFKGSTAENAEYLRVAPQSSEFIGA
exon 20 T790M mutant-type EGFR enzyme, sequence (P00533 25-1210 T790M): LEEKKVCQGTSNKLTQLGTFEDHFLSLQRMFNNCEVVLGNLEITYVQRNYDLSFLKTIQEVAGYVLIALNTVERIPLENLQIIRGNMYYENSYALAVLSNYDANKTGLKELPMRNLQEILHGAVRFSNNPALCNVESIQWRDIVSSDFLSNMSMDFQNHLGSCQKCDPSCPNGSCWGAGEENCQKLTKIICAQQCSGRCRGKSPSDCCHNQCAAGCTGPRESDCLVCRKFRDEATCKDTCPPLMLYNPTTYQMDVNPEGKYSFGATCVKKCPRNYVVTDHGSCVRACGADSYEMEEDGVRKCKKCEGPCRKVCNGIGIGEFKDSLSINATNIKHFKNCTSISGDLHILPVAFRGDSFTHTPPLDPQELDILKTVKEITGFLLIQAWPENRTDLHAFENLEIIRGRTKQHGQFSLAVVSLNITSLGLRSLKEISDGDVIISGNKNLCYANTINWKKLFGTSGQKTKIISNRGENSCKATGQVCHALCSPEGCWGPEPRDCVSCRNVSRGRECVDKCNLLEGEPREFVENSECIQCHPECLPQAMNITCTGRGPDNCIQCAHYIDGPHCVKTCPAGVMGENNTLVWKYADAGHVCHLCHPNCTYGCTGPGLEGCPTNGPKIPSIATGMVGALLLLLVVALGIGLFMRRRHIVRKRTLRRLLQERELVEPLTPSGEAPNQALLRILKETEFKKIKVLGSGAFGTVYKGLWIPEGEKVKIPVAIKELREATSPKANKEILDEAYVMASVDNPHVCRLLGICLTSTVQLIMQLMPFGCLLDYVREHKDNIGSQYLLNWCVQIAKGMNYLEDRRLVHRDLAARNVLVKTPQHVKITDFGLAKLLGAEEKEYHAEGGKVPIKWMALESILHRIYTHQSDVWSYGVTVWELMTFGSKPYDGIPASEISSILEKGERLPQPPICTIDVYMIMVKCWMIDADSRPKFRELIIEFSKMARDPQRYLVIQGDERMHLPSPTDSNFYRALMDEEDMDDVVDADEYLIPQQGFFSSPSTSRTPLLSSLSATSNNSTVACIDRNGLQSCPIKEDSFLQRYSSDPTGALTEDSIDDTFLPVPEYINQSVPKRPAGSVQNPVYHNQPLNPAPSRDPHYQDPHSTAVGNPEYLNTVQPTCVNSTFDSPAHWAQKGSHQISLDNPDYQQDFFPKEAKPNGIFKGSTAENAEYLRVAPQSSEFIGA

As usually defined, the IC50 is the concentration needed to halve the response being measured. As for `C=CC(=O)Nc1cc(Nc2nccc(-n3ncc4ccc(C#N)cc43)n2)c(OC)cc1N(C)CCN(C)C` [Example 112, N-(5-((4-(6-cyano-1H-indazol-1-yl)pyrimidin-2-yl)amino)-2-((2-(dimethylamino)ethyl)(methyl)amino)-4-methoxyphenyl)acrylamide], the IC50 in experiment [1] came to 3.45 nM; at wild-type EGFR enzyme, 46.9 nM; in the experiment with NCI-H1975 cells, 15.6 nM; in the experiment on A431 cells, 257 nM. The Selectivity of wild-type/mutant-type in experiment [1] came out at 13.61; in the experiment on NCI-H1975 cells, 16.51.
On to `C=CC(=O)Nc1cc(Nc2nccc(-c3cn(S(=O)(=O)N(C)C)c4ccccc34)n2)c(OC)cc1N(C)CCN1CCCC1` [Example 142, N-(5-((4-(1-(N,N-dimethylsulfamoyl)-1H-indol-3-yl)pyrimidin-2-yl)amino)-4-methoxy-2-(methyl(2-(pyrrolidin-1-yl)ethyl)amino)phenyl)acrylamide], for which the 50% inhibitory concentration (IC50) in experiment [1] was 0.23 nM; at wild-type EGFR enzyme, 1.8 nM; with NCI-H1975 cells it was 3.16 nM; in the experiment with A431 cells, 119 nM. For the same molecule, the Selectivity of wild-type/mutant-type is recorded as 7.83 in experiment [1] and 37.53 in the experiment with NCI-H1975 cells.
As for `C=CC(=O)Nc1cc(Nc2nccc(-n3nc(C)c4ccc(OC)cc43)n2)c(OC)cc1N(C)CCN(C)C` [Example 54, N-(2-((2-(dimethylamino)ethyl)(methyl)amino)-4-methoxy-5-((4-(6-methoxy-3-methyl-1H-indazol-1-yl)pyrimidin-2-yl)amino)phenyl)acrylamide], the IC50 in experiment [1] is 0.36 nM; against wild-type EGFR enzyme, 2.21 nM; in the experiment on NCI-H1975 cells, 2.75 nM; in the experiment with A431 cells, 71.2 nM. Also, the Selectivity of wild-type/mutant-type in experiment [1] was determined as 6.14; with NCI-H1975 cells it was 25.90.
Regarding `C=CC(=O)Nc1cc(Nc2ncc(Cl)c(-c3cn(C4CC4)c4ccccc34)n2)c(OC)cc1N(C)CCN(C)C` [Example 100, N-(5-((5-chloro-4-(1-cyclopropyl-1H-indol-3-yl)pyrimidin-2-yl)amino)-2-((2-(dimethylamino)ethyl)(methyl)amino)-4-methoxyphenyl)acrylamide], the figures for the IC50 in the experiment on NCI-H1975 cells and in the experiment with A431 cells were 8.72 nM and 350 nM, respectively.
In the case of `C=CC(=O)Nc1cc(Nc2nccc(-n3ncc4cc(OCCOC)ccc43)n2)c(OC)cc1N(C)CCN1CCCC1` [Example 134, N-(4-methoxy-5-((4-(5-(2-methoxyethoxy)-1H-indazol-1-yl)pyrimidin-2-yl)amino)-2-(methyl(2-(pyrrolidin-1-yl)ethyl)amino)phenyl)acrylamide], the 50% inhibitory concentration (IC50) in experiment [1] turned out to be 1.85 nM; at wild-type EGFR enzyme, 19.9 nM; with NCI-H1975 cells it was 12.3 nM; in the experiment with A431 cells, 325 nM. In addition, the Selectivity of wild-type/mutant-type in experiment [1] amounted to 10.75; in the experiment with NCI-H1975 cells, 26.45.
For `C=CC(=O)Nc1cc(Nc2ncc(Cl)c(-n3nc(C4CC4)c4cc(OC)ccc43)n2)c(OC)cc1N(C)CCN(C)C` [Example 115, N-(5-((5-chloro-4-(3-cyclopropyl-5-methoxy-1H-indazol-1-yl)pyrimidin-2-yl)amino)-2-((2-(dimethylamino)ethyl)(methyl)amino)-4-methoxyphenyl)acrylamide], the IC50 in experiment [1] was 0.37 nM; against wild-type EGFR enzyme, 3.94 nM; in the experiment on NCI-H1975 cells it was 4.98 nM; with A431 cells, 101 nM. Further, the Selectivity of wild-type/mutant-type in experiment [1] came to 10.65; in the experiment with NCI-H1975 cells, 20.34.
`C=CC(=O)Nc1cc(Nc2nccc(-n3nc(C)c4cc(C#N)ccc43)n2)c(OC)cc1N(C)CCN(C)C` [Example 56, N-(5-((4-(5-cyano-3-methyl-1H-indazol-1-yl)pyrimidin-2-yl)amino)-2-((2-(dimethylamino)ethyl)(methyl)amino)-4-methoxyphenyl)acrylamide]: the IC50 in experiment [1] amounted to 1.54 nM; against wild-type EGFR enzyme it was 16.3 nM; with NCI-H1975 cells it was 7.08 nM; in the experiment with A431 cells, 688 nM. Further, the Selectivity of wild-type/mutant-type is 10.56 in experiment [1] and 97.25 with NCI-H1975 cells.
For the molecule `C=CC(=O)Nc1cc(Nc2ncc(C(F)(F)F)c(-n3cnc4cc(OC)ccc43)n2)c(OC)cc1N(C)CCN(C)C` [Example 67, N-(2-((2-(dimethylamino)ethyl)(methyl)amino)-4-methoxy-5-((4-(5-methoxy-1H-benzo[d]imidazol-1-yl)-5-(trifluoromethyl)pyrimidin-2-yl)amino)phenyl)acrylamide], the IC50 stood at 1.63 nM in experiment [1], 378 nM at wild-type EGFR enzyme, 3.73 nM in the experiment with NCI-H1975 cells and 321 nM in the experiment with A431 cells. Besides, the figures for the Selectivity of wild-type/mutant-type (in experiment [1]; with NCI-H1975 cells) were 231.9 and 85.95, respectively.
For the molecule `C=CC(=O)Nc1cc(Nc2nccc(-c3c[nH]c4cc(OC)ccc34)n2)c(OC)cc1N(C)CCN(C)C` [Example 97, N-(2-((2-(dimethylamino)ethyl)(methyl)amino)-4-methoxy-5-((4-(6-methoxy-1H-indol-3-yl)pyrimidin-2-yl)amino)phenyl)acrylamide], the IC50 in experiment [1] came out at 0.18 nM; against wild-type EGFR enzyme, 0.5 nM; in the experiment with NCI-H1975 cells, 1.28 nM; with A431 cells, 141 nM. Also, the results for the Selectivity of wild-type/mutant-type (in experiment [1]; in the experiment on NCI-H1975 cells) were 2.78 and 109.92, respectively.
`C=CC(=O)Nc1cc(Nc2nccc(-n3nc(C4CC4)c4cc(OC)ccc43)n2)c(OC)cc1N(C)CCN(C)C` [Example 113, N-(5-((4-(3-cyclopropyl-5-methoxy-1H-indazol-1-yl)pyrimidin-2-yl)amino)-2-((2-(dimethylamino)ethyl)(methyl)amino)-4-methoxyphenyl)acrylamide]: the IC50 is 0.36 nM in experiment [1], 1.62 nM on wild-type EGFR enzyme, 3.17 nM in the experiment on NCI-H1975 cells and 233 nM in the experiment on A431 cells. Also, the results for the Selectivity of wild-type/mutant-type (in experiment [1]; in the experiment with NCI-H1975 cells) were 4.50 and 73.42, respectively.
Take `C=CC(=O)Nc1cc(Nc2nccc(-c3cn(CCO)c4ccccc34)n2)c(OC(F)F)cc1N(C)CCN(C)C` [Example 6, N-(4-(difluoromethoxy)-2-((2-(dimethylamino)ethyl)(methyl)amino)-5-((4-(1-(2-hydroxyethyl)-1H-indol-3-yl)pyrimidin-2-yl)amino)phenyl)acrylamide]: the IC50 amounted to 1.54 nM on wild-type EGFR enzyme, 2.2 nM with NCI-H1975 cells and 208 nM with A431 cells.
As to `C=CC(=O)Nc1cc(Nc2nccc(-c3cn(C(C)=O)c4ccccc34)n2)c(OC(F)F)cc1N(C)CCN(C)C` [Example 7, N-(5-((4-(1-acetyl-1H-indol-3-yl)pyrimidin-2-yl)amino)-4-(difluoromethoxy)-2-((2-(dimethylamino)ethyl)(methyl)amino)phenyl)acrylamide], the values for the IC50 on wild-type EGFR enzyme, with NCI-H1975 cells and in the experiment with A431 cells were 15.5 nM, 15.8 nM and 192 nM, respectively.
As for `C=CC(=O)Nc1cc(Nc2ncc(Cl)c(-c3cn(C4COC4)c4ccccc34)n2)c(OC)cc1N(C)CCN(C)C` [Example 130, N-(5-((5-chloro-4-(1-(oxetan-3-yl)-1H-indol-3-yl)pyrimidin-2-yl)amino)-2-((2-(dimethylamino)ethyl)(methyl)amino)-4-methoxyphenyl)acrylamide], the IC50 with A431 cells turned out to be 97 nM.
On to `C=CC(=O)Nc1cc(Nc2nccc(-n3cnc4ccc(OC)cc43)n2)c(OC)cc1N(C)CCN1CCCC1` [Example 139, N-(4-methoxy-5-((4-(6-methoxy-1H-benzo[d]imidazol-1-yl)pyrimidin-2-yl)amino)-2-(methyl(2-(pyrrolidin-1-yl)ethyl)amino)phenyl)acrylamide], for which the IC50 came to 1.44 nM in experiment [1], 9.16 nM on wild-type EGFR enzyme and 6.28 nM in the experiment with NCI-H1975 cells. For the same molecule, the Selectivity of wild-type/mutant-type in experiment [1] turned out to be 6.36.

Source of the values: patent publication US10428081B2, “EGFR inhibitor, preparation method and use thereof” (Shanghai Hansoh Biomedical Co., Ltd., priority 2014, dated 2019).
